In ChEMBL document CHEMBL5291721, “A preclinical secondary pharmacology resource illuminates target-adverse drug reaction associations of marketed drugs” (Nat Commun, 2023):

How the values were obtained:
[1] = target: Beta-1 adrenergic receptor (Homo sapiens, UniProt P08588); format: functional
[2] = target: Beta-2 adrenergic receptor (Homo sapiens, UniProt P07550)
[3] = target: Voltage-dependent L-type calcium channel subunit alpha-1C (Rattus norvegicus, UniProt P22002); format: functional
[4] = target: T1, 5-hydroxytryptamine receptor 1A (Homo sapiens, UniProt P08908); format: functional, cell-based
T1 sequence (P08908 whole entry): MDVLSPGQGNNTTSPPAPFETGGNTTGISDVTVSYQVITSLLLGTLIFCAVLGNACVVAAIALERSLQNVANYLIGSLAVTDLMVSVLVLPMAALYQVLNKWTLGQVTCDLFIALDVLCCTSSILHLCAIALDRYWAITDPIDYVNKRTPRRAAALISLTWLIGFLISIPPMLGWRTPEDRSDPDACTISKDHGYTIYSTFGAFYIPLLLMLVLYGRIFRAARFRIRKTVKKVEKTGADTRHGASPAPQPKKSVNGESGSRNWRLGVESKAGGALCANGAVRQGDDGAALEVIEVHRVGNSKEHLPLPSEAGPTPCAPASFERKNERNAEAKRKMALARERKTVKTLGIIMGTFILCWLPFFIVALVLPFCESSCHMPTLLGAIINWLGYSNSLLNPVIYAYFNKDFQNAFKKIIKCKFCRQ

[5] = target: 5-hydroxytryptamine receptor 2A (Homo sapiens, UniProt P28223); format: functional, cell-based
[6] = target: Kappa-type opioid receptor (Homo sapiens, UniProt P41145)
Mu-type opioid receptor [7] = target: T2, Mu-type opioid receptor (Homo sapiens, UniProt P35372); test: biochemical; format: functional
Progesterone receptor = target: T3, Progesterone receptor (Homo sapiens, UniProt P06401); format: functional
T3 sequence (P06401 whole entry): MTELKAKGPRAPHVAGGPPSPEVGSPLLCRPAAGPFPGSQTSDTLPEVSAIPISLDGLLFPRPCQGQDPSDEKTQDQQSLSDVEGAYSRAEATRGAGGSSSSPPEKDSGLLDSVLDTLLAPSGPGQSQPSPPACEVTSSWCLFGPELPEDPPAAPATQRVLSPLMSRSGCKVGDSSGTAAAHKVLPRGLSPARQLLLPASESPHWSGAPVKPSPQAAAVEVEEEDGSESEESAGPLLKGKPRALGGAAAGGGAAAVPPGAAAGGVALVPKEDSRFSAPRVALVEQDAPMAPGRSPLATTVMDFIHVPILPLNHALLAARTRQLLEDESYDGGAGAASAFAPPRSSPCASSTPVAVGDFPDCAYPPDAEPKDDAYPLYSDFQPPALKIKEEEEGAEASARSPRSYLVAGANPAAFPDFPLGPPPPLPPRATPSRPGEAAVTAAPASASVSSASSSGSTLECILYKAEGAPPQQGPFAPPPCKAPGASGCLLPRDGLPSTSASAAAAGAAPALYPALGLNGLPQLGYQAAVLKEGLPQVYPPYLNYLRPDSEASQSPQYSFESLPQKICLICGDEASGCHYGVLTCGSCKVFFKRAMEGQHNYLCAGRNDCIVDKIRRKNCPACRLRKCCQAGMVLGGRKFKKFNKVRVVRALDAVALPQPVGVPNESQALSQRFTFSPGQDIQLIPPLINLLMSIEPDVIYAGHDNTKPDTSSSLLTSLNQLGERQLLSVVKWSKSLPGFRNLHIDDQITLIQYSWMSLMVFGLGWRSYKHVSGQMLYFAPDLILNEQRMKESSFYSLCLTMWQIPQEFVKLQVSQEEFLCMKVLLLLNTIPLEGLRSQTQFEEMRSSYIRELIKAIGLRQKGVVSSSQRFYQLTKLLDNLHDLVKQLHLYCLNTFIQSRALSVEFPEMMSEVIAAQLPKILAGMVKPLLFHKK

[8] = target: T4, Alpha-1A adrenergic receptor (Homo sapiens, UniProt P35348); format: functional, cell-based
T4 sequence (P35348 whole entry): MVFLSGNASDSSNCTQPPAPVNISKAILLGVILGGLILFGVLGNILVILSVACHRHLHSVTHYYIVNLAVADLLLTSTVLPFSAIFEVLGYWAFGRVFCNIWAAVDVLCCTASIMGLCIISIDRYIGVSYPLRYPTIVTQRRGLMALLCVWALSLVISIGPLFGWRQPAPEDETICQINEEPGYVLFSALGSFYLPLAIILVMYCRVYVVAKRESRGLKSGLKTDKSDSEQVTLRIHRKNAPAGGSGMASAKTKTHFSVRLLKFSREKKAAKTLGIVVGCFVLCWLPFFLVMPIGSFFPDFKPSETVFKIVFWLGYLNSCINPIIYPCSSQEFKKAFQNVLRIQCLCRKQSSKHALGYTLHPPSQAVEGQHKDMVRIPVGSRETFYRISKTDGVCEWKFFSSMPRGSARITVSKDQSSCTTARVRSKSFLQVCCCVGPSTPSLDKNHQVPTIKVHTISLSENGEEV

Cannabinoid receptor 1 = Cannabinoid receptor 1 (Homo sapiens, UniProt P21554); format: functional, cell-based
[9] = target: T5, Alpha-2A adrenergic receptor (Homo sapiens, UniProt P08913)
T5 sequence (P08913 whole entry): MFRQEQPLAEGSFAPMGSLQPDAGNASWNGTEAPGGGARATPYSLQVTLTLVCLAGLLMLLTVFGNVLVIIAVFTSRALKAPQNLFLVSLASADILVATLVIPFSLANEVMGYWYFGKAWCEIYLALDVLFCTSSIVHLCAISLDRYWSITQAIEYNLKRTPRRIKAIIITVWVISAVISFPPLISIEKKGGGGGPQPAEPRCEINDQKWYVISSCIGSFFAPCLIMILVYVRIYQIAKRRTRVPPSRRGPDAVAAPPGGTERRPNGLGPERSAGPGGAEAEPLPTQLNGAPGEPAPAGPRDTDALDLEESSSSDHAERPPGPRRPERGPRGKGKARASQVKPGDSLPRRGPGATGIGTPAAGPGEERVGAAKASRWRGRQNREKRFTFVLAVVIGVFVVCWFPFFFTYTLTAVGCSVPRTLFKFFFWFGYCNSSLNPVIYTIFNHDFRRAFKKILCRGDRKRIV

Mu-type opioid receptor [10] = target: T2, Mu-type opioid receptor
[11] = target: Prostaglandin G/H synthase 1 (Homo sapiens, UniProt P23219); format: functional
Also: assay procedure not described here.

Sequence of 5-hydroxytryptamine receptor 2A (P28223 whole entry): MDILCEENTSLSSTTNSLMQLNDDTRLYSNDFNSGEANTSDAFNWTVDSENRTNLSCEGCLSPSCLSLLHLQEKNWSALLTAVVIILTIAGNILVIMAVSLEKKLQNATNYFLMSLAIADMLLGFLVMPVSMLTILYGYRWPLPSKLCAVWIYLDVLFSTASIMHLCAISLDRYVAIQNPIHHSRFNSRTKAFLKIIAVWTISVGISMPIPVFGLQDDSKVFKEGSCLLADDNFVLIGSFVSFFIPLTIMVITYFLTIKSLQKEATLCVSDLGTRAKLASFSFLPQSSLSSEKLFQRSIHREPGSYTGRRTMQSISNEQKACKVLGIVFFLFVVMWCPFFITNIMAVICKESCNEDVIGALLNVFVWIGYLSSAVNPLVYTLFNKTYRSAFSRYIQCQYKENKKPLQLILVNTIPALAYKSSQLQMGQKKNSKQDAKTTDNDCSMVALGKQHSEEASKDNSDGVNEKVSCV
Sequence of Cannabinoid receptor 1 (P21554 whole entry): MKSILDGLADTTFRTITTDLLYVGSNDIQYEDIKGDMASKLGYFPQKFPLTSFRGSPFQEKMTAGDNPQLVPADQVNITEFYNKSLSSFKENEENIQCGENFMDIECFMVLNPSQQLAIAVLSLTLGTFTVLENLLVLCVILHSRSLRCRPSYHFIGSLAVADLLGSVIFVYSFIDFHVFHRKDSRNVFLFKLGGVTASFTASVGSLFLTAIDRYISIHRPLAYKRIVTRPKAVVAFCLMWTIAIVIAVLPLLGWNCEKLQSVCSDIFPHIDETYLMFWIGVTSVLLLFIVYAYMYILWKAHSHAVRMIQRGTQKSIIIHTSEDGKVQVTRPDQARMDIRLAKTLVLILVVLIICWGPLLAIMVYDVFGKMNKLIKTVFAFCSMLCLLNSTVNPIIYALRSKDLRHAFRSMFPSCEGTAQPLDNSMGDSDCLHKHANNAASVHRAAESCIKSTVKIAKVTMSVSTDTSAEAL
Sequence of Beta-1 adrenergic receptor (P08588 whole entry): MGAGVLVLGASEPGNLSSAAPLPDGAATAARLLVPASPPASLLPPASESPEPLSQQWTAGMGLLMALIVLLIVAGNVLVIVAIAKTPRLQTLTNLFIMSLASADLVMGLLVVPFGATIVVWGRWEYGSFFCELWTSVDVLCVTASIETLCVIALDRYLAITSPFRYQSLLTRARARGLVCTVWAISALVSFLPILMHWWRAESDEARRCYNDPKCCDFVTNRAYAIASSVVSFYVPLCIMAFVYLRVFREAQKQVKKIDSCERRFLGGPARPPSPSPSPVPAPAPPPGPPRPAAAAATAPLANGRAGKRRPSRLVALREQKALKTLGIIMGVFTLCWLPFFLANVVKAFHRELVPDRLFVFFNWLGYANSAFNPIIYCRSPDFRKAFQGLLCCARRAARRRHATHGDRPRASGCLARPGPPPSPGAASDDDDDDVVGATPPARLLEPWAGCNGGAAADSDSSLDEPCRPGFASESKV
T2 sequence (P35372 whole entry): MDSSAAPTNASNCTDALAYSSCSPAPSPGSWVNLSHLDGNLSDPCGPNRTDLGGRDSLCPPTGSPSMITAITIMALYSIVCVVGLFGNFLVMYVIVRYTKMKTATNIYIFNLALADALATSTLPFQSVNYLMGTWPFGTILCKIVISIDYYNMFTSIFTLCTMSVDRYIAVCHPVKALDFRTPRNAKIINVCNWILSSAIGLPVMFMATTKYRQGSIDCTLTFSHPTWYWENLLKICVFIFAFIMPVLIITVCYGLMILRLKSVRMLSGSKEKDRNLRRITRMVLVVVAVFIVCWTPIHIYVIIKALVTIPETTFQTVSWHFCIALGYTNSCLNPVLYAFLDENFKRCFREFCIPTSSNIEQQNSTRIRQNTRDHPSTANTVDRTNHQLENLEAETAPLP
Sequence of Voltage-dependent L-type calcium channel subunit alpha-1C (P22002 whole entry): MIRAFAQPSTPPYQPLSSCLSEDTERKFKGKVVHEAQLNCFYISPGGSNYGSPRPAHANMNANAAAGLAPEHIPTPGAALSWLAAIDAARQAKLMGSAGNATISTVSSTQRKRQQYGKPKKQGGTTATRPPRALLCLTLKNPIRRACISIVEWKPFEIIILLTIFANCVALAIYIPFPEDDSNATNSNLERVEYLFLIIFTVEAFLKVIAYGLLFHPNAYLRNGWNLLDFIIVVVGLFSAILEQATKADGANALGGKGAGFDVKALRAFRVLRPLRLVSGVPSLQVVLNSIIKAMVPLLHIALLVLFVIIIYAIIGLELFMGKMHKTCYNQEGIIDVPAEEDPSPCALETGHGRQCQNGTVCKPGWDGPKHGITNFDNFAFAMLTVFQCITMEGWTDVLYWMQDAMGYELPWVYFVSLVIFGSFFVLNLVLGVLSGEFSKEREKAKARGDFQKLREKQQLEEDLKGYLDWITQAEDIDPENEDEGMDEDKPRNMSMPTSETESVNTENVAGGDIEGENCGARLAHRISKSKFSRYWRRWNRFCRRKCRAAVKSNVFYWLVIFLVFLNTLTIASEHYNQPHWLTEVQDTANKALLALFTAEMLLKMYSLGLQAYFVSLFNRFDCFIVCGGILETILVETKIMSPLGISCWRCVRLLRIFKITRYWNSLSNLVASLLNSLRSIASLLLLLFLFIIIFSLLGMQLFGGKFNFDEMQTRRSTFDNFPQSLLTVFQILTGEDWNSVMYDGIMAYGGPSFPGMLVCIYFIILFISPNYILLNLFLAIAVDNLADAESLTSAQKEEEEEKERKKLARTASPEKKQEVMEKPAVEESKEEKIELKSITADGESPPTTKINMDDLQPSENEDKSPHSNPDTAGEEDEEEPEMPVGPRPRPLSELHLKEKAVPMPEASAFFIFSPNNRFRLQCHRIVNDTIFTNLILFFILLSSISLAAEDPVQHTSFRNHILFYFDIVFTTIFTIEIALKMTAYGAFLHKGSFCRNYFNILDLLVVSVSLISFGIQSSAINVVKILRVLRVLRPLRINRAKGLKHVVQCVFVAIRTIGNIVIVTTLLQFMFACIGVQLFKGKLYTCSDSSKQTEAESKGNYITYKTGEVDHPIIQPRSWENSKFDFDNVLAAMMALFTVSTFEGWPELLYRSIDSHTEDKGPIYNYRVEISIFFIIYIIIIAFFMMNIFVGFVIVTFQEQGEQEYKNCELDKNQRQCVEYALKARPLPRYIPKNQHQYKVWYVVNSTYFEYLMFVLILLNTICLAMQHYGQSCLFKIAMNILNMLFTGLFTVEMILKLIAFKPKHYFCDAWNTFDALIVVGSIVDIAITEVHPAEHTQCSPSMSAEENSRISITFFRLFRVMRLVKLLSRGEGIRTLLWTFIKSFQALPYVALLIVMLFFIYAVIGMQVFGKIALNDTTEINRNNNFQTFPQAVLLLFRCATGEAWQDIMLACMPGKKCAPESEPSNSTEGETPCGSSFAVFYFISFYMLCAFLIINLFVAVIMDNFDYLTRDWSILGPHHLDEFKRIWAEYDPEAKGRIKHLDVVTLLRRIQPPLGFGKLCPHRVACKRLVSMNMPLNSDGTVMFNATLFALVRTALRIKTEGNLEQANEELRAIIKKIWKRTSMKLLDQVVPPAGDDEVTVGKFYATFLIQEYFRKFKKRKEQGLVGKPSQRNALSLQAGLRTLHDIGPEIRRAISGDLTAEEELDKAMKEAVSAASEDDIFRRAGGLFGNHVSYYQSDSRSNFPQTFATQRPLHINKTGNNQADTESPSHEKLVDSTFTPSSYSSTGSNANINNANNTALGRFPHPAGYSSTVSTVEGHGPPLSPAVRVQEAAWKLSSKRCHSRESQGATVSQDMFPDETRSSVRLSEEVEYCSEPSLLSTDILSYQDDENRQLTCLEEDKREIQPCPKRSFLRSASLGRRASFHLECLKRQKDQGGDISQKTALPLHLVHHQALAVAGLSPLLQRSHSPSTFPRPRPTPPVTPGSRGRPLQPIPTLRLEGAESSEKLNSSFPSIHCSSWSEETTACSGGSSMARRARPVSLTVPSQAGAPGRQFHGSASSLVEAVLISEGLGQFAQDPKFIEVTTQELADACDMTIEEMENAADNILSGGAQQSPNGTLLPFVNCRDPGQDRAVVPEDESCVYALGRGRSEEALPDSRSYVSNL
Sequence of Beta-2 adrenergic receptor (P07550 whole entry): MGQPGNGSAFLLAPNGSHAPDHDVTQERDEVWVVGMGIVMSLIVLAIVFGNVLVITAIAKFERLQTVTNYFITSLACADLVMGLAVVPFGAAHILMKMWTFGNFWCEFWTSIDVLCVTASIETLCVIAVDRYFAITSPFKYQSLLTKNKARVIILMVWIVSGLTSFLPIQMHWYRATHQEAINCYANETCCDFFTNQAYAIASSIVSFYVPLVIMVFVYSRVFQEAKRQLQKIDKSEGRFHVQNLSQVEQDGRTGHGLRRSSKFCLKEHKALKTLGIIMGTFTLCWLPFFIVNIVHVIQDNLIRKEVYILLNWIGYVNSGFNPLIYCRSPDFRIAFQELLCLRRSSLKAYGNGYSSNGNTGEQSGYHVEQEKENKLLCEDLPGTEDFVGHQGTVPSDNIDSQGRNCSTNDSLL
Sequence of Kappa-type opioid receptor (P41145 whole entry): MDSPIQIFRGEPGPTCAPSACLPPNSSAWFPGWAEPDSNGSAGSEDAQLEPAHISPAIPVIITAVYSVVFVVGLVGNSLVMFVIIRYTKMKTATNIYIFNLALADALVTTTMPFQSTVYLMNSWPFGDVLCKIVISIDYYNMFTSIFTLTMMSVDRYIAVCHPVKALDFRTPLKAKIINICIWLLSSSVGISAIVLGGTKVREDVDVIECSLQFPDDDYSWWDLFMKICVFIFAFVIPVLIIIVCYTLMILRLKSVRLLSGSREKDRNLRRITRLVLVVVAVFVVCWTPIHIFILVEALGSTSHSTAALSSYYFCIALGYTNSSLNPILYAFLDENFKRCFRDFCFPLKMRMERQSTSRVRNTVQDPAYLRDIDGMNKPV

| SMILES | AC50 [1] [µM] | AC50 [2] [µM] | AC50 [3] [µM] | AC50 [5] [µM] | AC50 [6] [µM] | AC50 (Mu-type opioid receptor [7]) [µM] | AC50 (Progesterone receptor) [µM] | AC50 [4] [µM] | AC50 [8] [µM] | AC50 (Cannabinoid receptor 1) [µM] | AC50 [9] [µM] | AC50 (Mu-type opioid receptor [10]) [µM] | AC50 [11] [µM] |
| --- | --- | --- | --- | --- | --- | --- | --- | --- | --- | --- | --- | --- | --- |
| OCCN1CCN(CCCN2c3ccccc3C=Cc3ccccc32)CC1 [OPIPRAMOL] | > 30 | – | – | 28 | > 30 | 15 | > 30 | > 30 | > 30 | > 30 | 9.6 | 19.4 | > 30 |
| CO/N=C(\C(=O)N[C@@H]1C(=O)N2C(C(=O)[O-])=C(C[N+]3(C)CCCC3)CS[C@H]12)c1csc(N)n1 | > 300 | > 30 | > 30 | > 30 | > 30 | > 30 | > 300 | > 300 | > 300 | > 300 | – | – | – |
| CN(CCOc1ccc(NS(C)(=O)=O)cc1)CCc1ccc(NS(C)(=O)=O)cc1 [DOFETILIDE] | > 10 | > 10 | – | > 30 | > 10 | > 30 | – | > 10 | > 30 | > 30 | > 30 | > 30 | > 30 |
| NC(=O)c1ncn([C@@H]2O[C@H](CO)[C@@H](O)[C@H]2O)c1O [MIZORIBINE] | > 30 | – | – | > 30 | > 30 | > 30 | > 30 | > 30 | > 30 | > 30 | – | – | – |

Further lines, with some results ahead:

| AC50 [1] [µM] | AC50 [2] [µM] | AC50 [3] [µM] | AC50 [5] [µM] | AC50 [6] [µM] | AC50 (Mu-type opioid receptor [7]) [µM] | AC50 (Progesterone receptor) [µM] | SMILES | AC50 [4] [µM] | AC50 [8] [µM] | AC50 (Cannabinoid receptor 1) [µM] | AC50 [9] [µM] | AC50 (Mu-type opioid receptor [10]) [µM] | AC50 [11] [µM] |
| --- | --- | --- | --- | --- | --- | --- | --- | --- | --- | --- | --- | --- | --- |
| > 10 | > 10 | > 10 | > 10 | > 10 | > 30 | > 10 | CN1C(=O)CC(C)(c2ccccc2)C1=O (configuration not stated) [METHSUXIMIDE] | > 10 | – | – | – | – | – |
| > 30 | > 30 | > 30 | > 30 | > 30 | > 30 | 23 | CCCS(=O)(=O)Nc1ccc(F)c(C(=O)c2c[nH]c3ncc(-c4ccc(Cl)cc4)cc23)c1F [VEMURAFENIB] | – | > 30 | > 30 | – | – | – |
| > 30 | > 10 | > 10 | > 30 | > 30 | > 30 | > 30 | O=C(CCCCCCC(=O)Nc1ccccc1)NO [VORINOSTAT] | > 30 | > 30 | > 30 | – | – | – |
